The target of one assay is PARP7 (Homo sapiens (Human), UniProt Q7Z3E1). In words: TR-FRET assay: displacement of biotinylated Probe A from the TIPARP active site (Enzymatic Assay for Inhibition of PARP7). Type of assay: binding. The settings on record: TIPARP 6 nM, Probe A 2 nM, 25° C. The method in brief: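 6 nM His-tagged TIPARP and 2 nM biotinylated Probe A preincubated with compound 30 min at 25 °C in HEPES pH 8 buffer, then 4 nM ULight-anti-6×His and 0.25 nM Eu-streptavidin added for 30 min more. 665/615 nm ratio normalised to DMSO and 100 μM reference inhibitor controls; IC50 from 4-parameter fit.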
On the technique in general: TR-FRET usually uses a lanthanide donor and a delayed reading to cut background.

Another assay relates to NCI-H1373 cells. Put plainly: Tumor growth in human lung cancer model NCI-H1373 (subcutaneous xenograft). The settings on record: 100 mg/kg PO QD*28 days, NCI-H1373 tumors in CB-17 SCID mice, compared to vehicle (50% Labrasol). Type of assay: in vivo. The source says: Example B. PARP7 Inhibitors' Affect on Tumor Growth in Human Lung Cancer Models NCI-H1373
In this study, CB-17 SCID mice were inoculated subcutaneously at the right flank with NCI-H1373 cells for tumor development. Six days after tumor inoculation, 20 mice with tumor size ranging from 105-160 mm^3 (average tumor size 132 mm^3) were selected and assigned into 2 groups using stratified randomization with 10 mice in each group based upon their tumor volumes. The treatments were started from the next day post randomization (defined randomization day as day 0), and the mice were treated with vehicle (50% Labrasol), the compound of Example 57 (100 mg/kg PO. QD*28 days). The tumor sizes were measured three times per week during the treatment. The entire study was terminated on day 28.
Mean tumor volume and SEM were plotted (FIG. 1). Statistical significance, calculated using two-way ANOVA combined with Bonferroni post-test in which treatment group was compared to vehicle control, is indicated by an asterisk.
On the technique in general: Xenograft models place foreign cells or tissue in a host animal.

Broadly, the IC50 is the concentration that gives 50% inhibition. A lower IC50 goes with greater potency.

PARP7, sequence (Q7Z3E1 whole entry): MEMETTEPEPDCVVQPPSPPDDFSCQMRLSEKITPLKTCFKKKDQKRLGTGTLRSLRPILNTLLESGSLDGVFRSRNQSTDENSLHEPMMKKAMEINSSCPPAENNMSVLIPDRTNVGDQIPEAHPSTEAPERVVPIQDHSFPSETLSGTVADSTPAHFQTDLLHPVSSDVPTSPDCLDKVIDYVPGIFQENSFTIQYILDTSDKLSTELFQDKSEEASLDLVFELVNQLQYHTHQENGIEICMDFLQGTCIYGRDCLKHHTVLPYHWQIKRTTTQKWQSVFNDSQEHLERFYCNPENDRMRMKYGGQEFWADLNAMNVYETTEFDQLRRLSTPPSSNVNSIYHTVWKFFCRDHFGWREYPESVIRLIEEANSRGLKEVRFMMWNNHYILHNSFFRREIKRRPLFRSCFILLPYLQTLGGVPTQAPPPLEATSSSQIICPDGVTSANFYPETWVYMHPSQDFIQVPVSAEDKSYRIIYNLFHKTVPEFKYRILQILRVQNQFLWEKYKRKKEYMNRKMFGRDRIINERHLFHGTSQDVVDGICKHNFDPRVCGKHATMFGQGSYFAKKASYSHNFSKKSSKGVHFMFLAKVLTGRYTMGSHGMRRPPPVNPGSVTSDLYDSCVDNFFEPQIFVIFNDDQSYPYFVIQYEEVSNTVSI

For the molecule `C[C@@H](CO[C@@H]1CCN([C@@H]2CCN(c3ncc(C(F)(F)F)cn3)C[C@H]2O)C1=O)Nc1cn[nH]c(=O)c1C(F)(F)F` [Example 57, 5-(((S)-1-(((R)-1-((3R,4R)-3-hydroxy-1-(5-(trifluoromethyl)pyrimidin-2-yl)piperidin-4-yl)-2-oxopyrrolidin-3-yl)oxy)propan-2-yl)amino)-4-(trifluoromethyl)pyridazin-3(2H)-one], the half-maximal inhibitory concentration (IC50) at PARP7 is < 100 nM. For the same molecule, the “tumor growth (mean tumor volume)” value in the assay on NCI-H1373 cells is given as “significantly reduce tumor growth”. Turning to `C[C@@H](CO[C@@H]1CCN([C@H]2CCN(c3ncc(C(F)(F)F)cn3)C[C@@H]2O)C1=O)Nc1cn[nH]c(=O)c1C(F)(F)F` [Example 58, 5-(((S)-1-(((R)-1-((3S,4S)-3-hydroxy-1-(5-(trifluoromethyl)pyrimidin-2-yl)piperidin-4-yl)-2-oxopyrrolidin-3-yl)oxy)propan-2-yl)amino)-4-(trifluoromethyl)pyridazin-3(2H)-one], the concentration for half-maximal inhibition (IC50) on PARP7 was < 100 nM. The same measure, in the same setting: the same measure for `C[C@@H](CO[C@@H]1CCN([C@@H]2CCN(c3ncc(C(F)(F)F)cn3)C[C@@H]2O)C1=O)Nc1cn[nH]c(=O)c1C(F)(F)F` [Example 59, 5-(((S)-1-(((R)-1-((3S,4R)-3-hydroxy-1-(5-(trifluoromethyl)pyrimidin-2-yl)piperidin-4-yl)-2-oxopyrrolidin-3-yl)oxy)propan-2-yl)amino)-4-(trifluoromethyl)pyridazin-3(2H)-one]: < 100 nM; for `C[C@@H](CO[C@@H]1CCN([C@H]2CCN(c3ncc(C(F)(F)F)cn3)C[C@H]2O)C1=O)Nc1cn[nH]c(=O)c1C(F)(F)F` [Example 60, 5-(((S)-1-(((R)-1-((3R,4S)-3-hydroxy-1-(5-(trifluoromethyl)pyrimidin-2-yl)piperidin-4-yl)-2-oxopyrrolidin-3-yl)oxy)propan-2-yl)amino)-4-(trifluoromethyl)pyridazin-3(2H)-one]: < 100 nM.

As for `C[C@H](Nc1cn[nH]c(=O)c1C(F)(F)F)C(=O)N[C@@H]1CCN(C2CCN(c3ncc(C(F)(F)F)cn3)CC2)C1=O` [Example 61, (S)—N—((R)-2-oxo-1-(1-(5-(trifluoromethyl)pyrimidin-2-yl)piperidin-4-yl)pyrrolidin-3-yl)-2-((6-oxo-5-(trifluoromethyl)-1,6-dihydropyridazin-4-yl)amino)propanamide], the IC50 on PARP7 is < 100 nM.

On to `O=C1[C@H](OC[C@H](CNCC(F)(F)F)Nc2cn[nH]c(=O)c2C(F)(F)F)CCN1C1CCN(c2ncc(C(F)(F)F)cn2)CC1` [Example 62, 5-(((S)-1-(((R)-2-oxo-1-(1-(5-(trifluoromethyl)pyrimidin-2-yl)piperidin-4-yl)pyrrolidin-3-yl)oxy)-3-((2,2,2-trifluoroethyl)amino)propan-2-yl)amino)-4-(trifluoromethyl)pyridazin-3(2H)-one], for which, on PARP7, the IC50 was < 100 nM. The same measure, in the same setting: to `O=C1[C@H](OC[C@H](CO)Nc2cn[nH]c(=O)c2C(F)(F)F)CCN1C1CCN(c2ncc(C(F)(F)F)cn2)CC1` [Example 63, 5-(((S)-1-hydroxy-3-(((R)-2-oxo-1-(1-(5-(trifluoromethyl)pyrimidin-2-yl)piperidin-4-yl)pyrrolidin-3-yl)oxy)propan-2-yl)amino)-4-(trifluoromethyl)pyridazin-3(2H)-one] belongs < 100 nM; to `C[C@@H](CO[C@H]1CCN(C2CCN(c3ncc(C(F)(F)F)cn3)CC2O)C1=O)Oc1cn[nH]c(=O)c1C(F)(F)F` (stereo partly drawn) [Example 64A, Syn-5-(((2S)-1-(((3S)-1-(3-hydroxy-1-(5-(trifluoromethyl)pyrimidin-2-yl)piperidin-4-yl)-2-oxopyrrolidin-3-yl)oxy)propan-2-yl)oxy)-4-(trifluoromethyl)pyridazin-3(2H)-one], < 100 nM; to `C[C@@H](CO[C@@H]1CCN(C2CCN(c3ncc(C(F)(F)F)cn3)CC2O)C1=O)Oc1cn[nH]c(=O)c1C(F)(F)F` (stereo partly drawn) [Example 64B, Syn-5-(((2S)-1-(((3R)-1-(3-hydroxy-1-(5-(trifluoromethyl)pyrimidin-2-yl)piperidin-4-yl)-2-oxopyrrolidin-3-yl)oxy)propan-2-yl)oxy)-4-(trifluoromethyl)pyridazin-3(2H)-one], < 100 nM.

Turning to `C[C@@H](COC1CCN([C@@H]2CCN(c3ncc(C(F)(F)F)cn3)C[C@H]2O)C1=O)Oc1cn[nH]c(=O)c1C(F)(F)F` (stereo partly drawn) [Example 65, 5-(((2S)-1-((1-((3R,4R)-3-hydroxy-1-(5-(trifluoromethyl)pyrimidin-2-yl)piperidin-4-yl)-2-oxopyrrolidin-3-yl)oxy)propan-2-yl)oxy)-4-(trifluoromethyl)pyridazin-3(2H)-one], at PARP7, the IC50 is < 100 nM. For `CC(=O)NC[C@@H](CO[C@@H]1CCN(C2CCN(c3ncc(C(F)(F)F)cn3)CC2)C1=O)Nc1cn[nH]c(=O)c1C(F)(F)F` [Example 66, N—((S)-3-(((R)-2-oxo-1-(1-(5-(trifluoromethyl)pyrimidin-2-yl)piperidin-4-yl)pyrrolidin-3-yl)oxy)-2-((6-oxo-5-(trifluoromethyl)-1,6-dihydropyridazin-4-yl)amino)propyl)acetamide], the IC50 at PARP7 was < 100 nM. The same measure, in the same setting: the same measure for `C[C@@H](O)[C@@H](CO[C@@H]1CCN(C2CCN(c3ncc(C(F)(F)F)cn3)CC2)C1=O)Nc1cn[nH]c(=O)c1C(F)(F)F` [Example 67, 5-(((2R,3R)-3-hydroxy-1-(((R)-2-oxo-1-(1-(5-(trifluoromethyl)pyrimidin-2-yl)piperidin-4-yl)pyrrolidin-3-yl)oxy)butan-2-yl)amino)-4-(trifluoromethyl)pyridazin-3(2H)-one]: < 100 nM; for `C[C@@H](CO[C@@H]1CCN(C2CCN(c3ncc(C(F)(F)F)cn3)CC2C(N)=O)C1=O)Nc1cn[nH]c(=O)c1C(F)(F)F` (stereo partly drawn) [Example 68, 4-((R)-2-oxo-3-((S)-2-((6-oxo-5-(trifluoromethyl)-1,6-dihydropyridazin-4-yl)amino)propoxy)pyrrolidin-1-yl)-1-(5-(trifluoromethyl)pyrimidin-2-yl)piperidine-3-carboxamide]: < 100 nM; for `C[C@@H](CO[C@@H]1CCN(C2CCN(c3ncc(C(F)(F)F)cn3)CC2C#N)C1=O)Nc1cn[nH]c(=O)c1C(F)(F)F` (stereo partly drawn) [Example 69, 4-((R)-2-oxo-3-((S)-2-((6-oxo-5-(trifluoromethyl)-1,6-dihydropyridazin-4-yl)amino)propoxy)pyrrolidin-1-yl)-1-(5-(trifluoromethyl)pyrimidin-2-yl)piperidine-3-carbonitrile]: < 100 nM.

Values taken from US11691969B2, “Pyridazinones as PARP7 inhibtors” (Ribon Therapeutics, Inc., priority 2019, dated 2023).
